Test results: PMC10882719 (Frontiers in Neuroscience, 2024)
Read-outs that look alike come from different tables or passages of the source.

How the values were obtained:
Format in all cases: cell-based
[1] = target: T1, 168 GPCRs (Homo sapiens, UniProt P48145)
T1 construct: host or cells: PathHunter cell lines
T1 sequence (P48145 1-328): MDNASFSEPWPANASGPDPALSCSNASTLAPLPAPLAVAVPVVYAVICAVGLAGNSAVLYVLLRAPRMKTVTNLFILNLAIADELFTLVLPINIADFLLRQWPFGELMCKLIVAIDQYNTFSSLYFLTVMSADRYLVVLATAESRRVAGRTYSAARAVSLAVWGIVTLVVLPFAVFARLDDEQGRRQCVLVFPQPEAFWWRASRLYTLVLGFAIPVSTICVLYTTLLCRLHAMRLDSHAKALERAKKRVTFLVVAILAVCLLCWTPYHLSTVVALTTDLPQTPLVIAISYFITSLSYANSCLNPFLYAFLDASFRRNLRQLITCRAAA

[2] = target: T2, 168 GPCRs (Homo sapiens, UniProt P47211)
T2 construct: host or cells: PathHunter cell lines
T2 sequence (P47211 1-349): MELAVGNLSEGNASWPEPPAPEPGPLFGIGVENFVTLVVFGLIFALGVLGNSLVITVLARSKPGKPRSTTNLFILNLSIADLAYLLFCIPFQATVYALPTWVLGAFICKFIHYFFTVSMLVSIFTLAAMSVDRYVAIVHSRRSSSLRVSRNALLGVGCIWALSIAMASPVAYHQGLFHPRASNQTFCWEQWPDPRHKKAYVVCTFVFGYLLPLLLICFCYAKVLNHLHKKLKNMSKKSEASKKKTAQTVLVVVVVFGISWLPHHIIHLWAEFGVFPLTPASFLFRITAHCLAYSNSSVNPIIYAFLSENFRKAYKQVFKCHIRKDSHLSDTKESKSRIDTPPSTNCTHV

[3] = target: T3, 168 GPCRs (Homo sapiens, UniProt P08912)
T3 construct: host or cells: PathHunter cell lines
T3 sequence (P08912 1-532): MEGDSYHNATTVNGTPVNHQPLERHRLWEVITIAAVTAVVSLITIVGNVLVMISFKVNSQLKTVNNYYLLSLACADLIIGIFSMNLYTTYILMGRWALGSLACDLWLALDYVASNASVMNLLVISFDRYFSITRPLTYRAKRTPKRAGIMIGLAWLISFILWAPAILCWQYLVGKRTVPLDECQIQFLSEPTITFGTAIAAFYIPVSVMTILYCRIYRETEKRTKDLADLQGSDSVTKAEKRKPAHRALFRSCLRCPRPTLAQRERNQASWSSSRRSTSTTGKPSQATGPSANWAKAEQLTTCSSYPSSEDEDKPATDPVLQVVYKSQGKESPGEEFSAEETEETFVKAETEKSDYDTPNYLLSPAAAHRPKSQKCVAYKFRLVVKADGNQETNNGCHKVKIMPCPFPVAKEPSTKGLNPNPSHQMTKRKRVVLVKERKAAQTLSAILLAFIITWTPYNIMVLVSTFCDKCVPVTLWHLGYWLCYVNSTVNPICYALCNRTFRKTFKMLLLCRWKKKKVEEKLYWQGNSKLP

[4] = target: T4, 168 GPCRs (Homo sapiens, UniProt P28336); details: NMBR
T4 construct: host or cells: PathHunter cell lines

[5] = target: T5, 168 GPCRs (Homo sapiens, UniProt P35414)
T5 construct: host or cells: PathHunter cell lines
T5 sequence (P35414 1-380): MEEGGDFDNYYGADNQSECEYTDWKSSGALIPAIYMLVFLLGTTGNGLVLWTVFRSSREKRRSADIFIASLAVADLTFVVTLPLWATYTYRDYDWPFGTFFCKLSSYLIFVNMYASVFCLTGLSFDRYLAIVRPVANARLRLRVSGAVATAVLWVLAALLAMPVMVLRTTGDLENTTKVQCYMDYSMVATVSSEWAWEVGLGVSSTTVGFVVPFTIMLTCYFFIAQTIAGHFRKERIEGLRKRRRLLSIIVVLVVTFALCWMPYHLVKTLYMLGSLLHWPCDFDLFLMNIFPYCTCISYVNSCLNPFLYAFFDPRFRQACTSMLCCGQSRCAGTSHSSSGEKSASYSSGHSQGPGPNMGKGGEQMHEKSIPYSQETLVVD

[6] = target: T6, 168 GPCRs (Homo sapiens, UniProt P30874); details: SSTR2
T6 construct: host or cells: PathHunter cell lines

[7] = target: T7, 168 GPCRs (Homo sapiens, UniProt Q969V1)
T7 construct: host or cells: PathHunter cell lines

[8] = target: T8, 168 GPCRs (Homo sapiens, UniProt O14842)
T8 construct: host or cells: PathHunter cell lines
T8 sequence (O14842 whole entry): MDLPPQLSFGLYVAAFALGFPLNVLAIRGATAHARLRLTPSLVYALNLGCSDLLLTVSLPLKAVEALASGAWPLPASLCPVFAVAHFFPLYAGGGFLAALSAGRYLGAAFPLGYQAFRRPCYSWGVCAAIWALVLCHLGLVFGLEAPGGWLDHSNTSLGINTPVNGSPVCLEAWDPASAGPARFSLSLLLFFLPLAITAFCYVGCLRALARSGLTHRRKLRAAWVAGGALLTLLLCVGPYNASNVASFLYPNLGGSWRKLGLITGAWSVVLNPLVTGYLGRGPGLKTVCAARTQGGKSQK

T7 sequence (Q969V1 whole entry): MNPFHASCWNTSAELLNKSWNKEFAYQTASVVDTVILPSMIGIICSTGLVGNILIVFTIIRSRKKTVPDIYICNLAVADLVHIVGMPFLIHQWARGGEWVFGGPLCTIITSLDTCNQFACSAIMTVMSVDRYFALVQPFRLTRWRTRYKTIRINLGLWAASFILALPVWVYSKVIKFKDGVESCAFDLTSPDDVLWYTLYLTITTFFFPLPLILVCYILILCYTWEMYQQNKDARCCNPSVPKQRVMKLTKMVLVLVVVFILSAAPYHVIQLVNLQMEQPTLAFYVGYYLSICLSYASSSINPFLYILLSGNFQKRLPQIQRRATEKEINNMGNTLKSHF
T6 sequence (P30874 whole entry): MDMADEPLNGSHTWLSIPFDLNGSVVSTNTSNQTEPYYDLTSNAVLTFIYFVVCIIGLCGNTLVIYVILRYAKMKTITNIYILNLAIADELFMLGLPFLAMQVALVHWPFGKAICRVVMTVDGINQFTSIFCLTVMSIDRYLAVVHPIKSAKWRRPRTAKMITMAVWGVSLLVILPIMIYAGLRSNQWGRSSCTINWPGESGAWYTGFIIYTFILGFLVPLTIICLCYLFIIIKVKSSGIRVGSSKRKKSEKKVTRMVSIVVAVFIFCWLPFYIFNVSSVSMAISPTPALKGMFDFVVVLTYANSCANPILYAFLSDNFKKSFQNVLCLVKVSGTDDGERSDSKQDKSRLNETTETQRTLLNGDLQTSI
T4 sequence (P28336 whole entry): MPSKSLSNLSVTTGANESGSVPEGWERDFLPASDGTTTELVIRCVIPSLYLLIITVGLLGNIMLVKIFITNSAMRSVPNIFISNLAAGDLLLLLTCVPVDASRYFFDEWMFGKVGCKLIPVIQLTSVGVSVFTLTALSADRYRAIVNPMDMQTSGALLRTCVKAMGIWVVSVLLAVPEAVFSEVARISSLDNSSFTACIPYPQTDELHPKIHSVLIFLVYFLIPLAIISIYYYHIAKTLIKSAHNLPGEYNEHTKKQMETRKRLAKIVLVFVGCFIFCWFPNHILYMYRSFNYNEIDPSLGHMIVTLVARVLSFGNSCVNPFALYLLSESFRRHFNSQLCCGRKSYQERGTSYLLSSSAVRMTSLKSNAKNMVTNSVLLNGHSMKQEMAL

SMILES | % Agonist Activity ([1]; NPBWR1, 1 uM) | % Antagonist Activity ([1]; NPBWR1, 1 uM) | % Agonist Activity ([1]; NPBWR1, 10 uM) | % Antagonist Activity ([1]; NPBWR1, 10 uM) | % Agonist Activity ([2]; GALR1, 1 uM) | % Antagonist Activity ([2]; GALR1, 1 uM) | % Agonist Activity ([2]; GALR1, 10 uM) | % Antagonist Activity ([2]; GALR1, 10 uM) | % Agonist Activity ([3]; CHRM5, 1 uM) | % Antagonist Activity ([3]; CHRM5, 1 uM) | % Agonist Activity ([3]; CHRM5, 10 uM) | % Antagonist Activity ([3]; CHRM5, 10 uM) | % Agonist Activity ([4]; 1 uM) | % Antagonist Activity ([4]; 1 uM) | % Agonist Activity ([4]; 10 uM) | % Antagonist Activity ([4]; 10 uM) | % Agonist Activity ([5]; AGTRL1, 1 uM) | % Antagonist Activity ([5]; AGTRL1, 1 uM) | % Agonist Activity ([5]; AGTRL1, 10 uM) | % Antagonist Activity ([5]; AGTRL1, 10 uM) | also measured
CNC(C)Cc1ccc2c(c1)OCO2 (stereo not shown) [MDMA, 3,4-Methylenedioxy methamphetamine, reference compound] | -10.2% | -7.5% | -13.4% | -8.5% | 0.7% | -0.2% | 0.6% | -5.1% | 8.8% | 11.2% | 8.3% | 14.4% | 0% | -2.5% | 0.1% | 4.3% | -0.8% | -13.4% | -0.2% | -8.4% | % Agonist Activity ([6]; Conc 1 uM): 0%; % Antagonist Activity ([6]; Conc 1 uM): 2.7%; % Agonist Activity ([6]; Conc 10 uM): 0.2%; % Antagonist Activity ([6]; Conc 10 uM): 9.1%; % Agonist Activity ([7]; MCHR2, 1 uM): 0.8%; % Antagonist Activity ([7]; MCHR2, 1 uM): -25%; % Agonist Activity ([7]; MCHR2, 10 uM): 0.3%; % Antagonist Activity ([7]; MCHR2, 10 uM): -17.3%; % Agonist Activity ([8]; FFAR1, 1 uM): 3.9%; % Antagonist Activity ([8]; FFAR1, 1 uM): -5.6%; % Agonist Activity ([8]; FFAR1, 10 uM): 7%; % Antagonist Activity ([8]; FFAR1, 10 uM): -0.4%
CNC(C)C(=O)c1ccc2c(c1)OCO2 (stereo not shown) [methylone] | 1.6% | 17.1% | -1.9% | 25.1% | 0.8% | 7.1% | 0.6% | 6.8% | 7.2% | -8% | 8.7% | -7.6% | 1.1% | 10.3% | 1.2% | 13.2% | -0.9% | -3.3% | -1.5% | -4.1% | % Agonist Activity ([6]; Conc 1 uM): 0%; % Antagonist Activity ([6]; Conc 1 uM): -0.4%; % Agonist Activity ([6]; Conc 10 uM): 0.7%; % Antagonist Activity ([6]; Conc 10 uM): -4.2%; % Agonist Activity ([7]; MCHR2, 1 uM): -1.5%; % Antagonist Activity ([7]; MCHR2, 1 uM): 2%; % Agonist Activity ([7]; MCHR2, 10 uM): -0.7%; % Antagonist Activity ([7]; MCHR2, 10 uM): -4.5%; % Agonist Activity ([8]; FFAR1, 1 uM): 1.7%; % Antagonist Activity ([8]; FFAR1, 1 uM): -7.9%; % Agonist Activity ([8]; FFAR1, 10 uM): 4.5%; % Antagonist Activity ([8]; FFAR1, 10 uM): -13.8%
